Activity calls are given as the source filed them. No cut-off for these calls is given here.
Legend:
[1] = target: T1, 5-hydroxymethyl-dUMP N-hydrolase (Homo sapiens, UniProt O43598); experiment: Competitive inhibition of wild-type truncated human DNPH1 extracted from Escherichia coli BL21DE3 using hmdUMP as substrate preincubated for 30 mins followed by substrate addition measured after 60 mins in presence of NADH
T1 sequence (O43598 whole entry): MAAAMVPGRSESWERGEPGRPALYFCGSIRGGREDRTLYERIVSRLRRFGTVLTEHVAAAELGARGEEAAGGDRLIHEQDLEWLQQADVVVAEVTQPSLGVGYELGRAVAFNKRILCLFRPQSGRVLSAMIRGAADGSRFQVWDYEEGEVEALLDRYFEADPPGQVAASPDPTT

[2] = target: T1, 5-hydroxymethyl-dUMP N-hydrolase; experiment: Binding affinity to DNPH1 (unknown origin) assessed as equilibrium constant
[3] = target: T1, 5-hydroxymethyl-dUMP N-hydrolase; experiment: Inhibition of wild-type truncated human DNPH1 extracted from Escherichia coli BL21DE3 assessed as decrease in hmdUMP hydrolysis preincubated for 30 mins followed by hmdUMP addition measured after 30 mins in presence of NADH
[4] = target: T2, 5-hydroxymethyl-dUMP N-hydrolase (Homo sapiens) (UniProt O43598); details: dose 1.0 mM, time 30.0 min
T2 sequence (whole entry): T1 sequence (O43598 whole entry)

[5] = target: T1, 5-hydroxymethyl-dUMP N-hydrolase; experiment: Binding affinity to wild-type truncated human DNPH1 extracted from Escherichia coli BL21DE3 assessed as dissociation constant by ITC analysis

Ki [1]	Compound	further results
5.17 µM	O=c1cc(CN2C[C@H](COP(=O)(O)O)[C@@H](O)C2)[nH]c(=O)[nH]1	
5.14 µM	O=P(O)(O)OC[C@H]1CN(Cc2cc(CO)c(F)nc2F)C[C@@H]1O	
	O=c1[nH]c(=O)n([C@H]2C[C@H](O)[C@@H](CP(=O)(O)O)O2)cc1CO	Kd [2]: 6.3 µM
> 50 µM	O=P(O)(O)OC[C@H]1CN(Cc2ccccc2)C[C@@H]1O	
25.8 µM	O=P(O)(O)OC[C@H]1CN(Cc2ccc(F)nc2F)C[C@@H]1O	
20.7 µM	O=P(O)(O)OC[C@H]1CN(Cc2cccnc2)C[C@@H]1O	
36.8 µM	O=c1[nH]cccc1CN1C[C@H](COP(=O)(O)O)[C@@H](O)C1	
> 50 µM	O=P(O)(O)OC[C@H]1NC[C@H](O)[C@@H]1O	
	O=c1[nH]c(=O)n([C@@H]2O[C@H](COP(=O)(O)O)[C@@H](O)[C@H]2O)cc1CO	IC50 [3]: 1.3 µM; Kd [1]: 0.6 µM; inhibition [4]: Active; Potent Than Ump
6.5 µM	Nc1nc2c(CN3C[C@H](COP(=O)(O)O)[C@@H](O)C3)c[nH]c2c(=O)[nH]1	
> 50 µM	O=P(O)(O)OC[C@H]1NCC[C@@H]1O	
2.85 µM	Nc1ncnc2c(CN3C[C@H](COP(=O)(O)O)[C@@H](O)C3)c[nH]c12	
3.67 µM	O=P(O)(O)OC[C@H]1CN(Cc2cncc(CO)c2)C[C@@H]1O	
	O=c1[nH]c(=O)n([C@@H]2O[C@H](COP(=O)(O)O)[C@@H](O)[C@@H]2F)cc1CO	IC50 [3]: 1.5 µM; Kd [1]: 0.57 µM; Kd [5]: 0.43 µM; inhibition [4]: Active; Potent Than Ump
	O=c1[nH]c(=O)n([C@@H]2O[C@H](COP(=O)(O)O)[C@@H](O)[C@@H]2O)cc1CO	IC50 [3]: > 100 µM; Kd [1]: > 50 µM
0.61 µM	O=c1[nH]cc(CN2C[C@H](COP(=O)(O)O)[C@@H](O)C2)cc1CO	
> 50 µM	O=c1[nH]c(CN2C[C@H](COP(=O)(O)O)[C@@H](O)C2)c(CO)c(=O)[nH]1	
12.3 µM	COc1nc(OC)c(CN2C[C@H](COP(=O)(O)O)[C@@H](O)C2)cc1F	
> 50 µM	O=P(O)(O)OC[C@H]1CNC[C@@H]1OP(=O)(O)O	
3.3 µM	O=P(O)(O)OC[C@H]1CNC[C@@H]1O	Kd [5]: 1.3 µM

Reference: ChEMBL document CHEMBL6153067, “Transition State Analogs of Human DNPH1 Reveal Two Electrophile Migration Mechanisms” (J Med Chem, 2025)
